Source: PubChem BioAssay AID652152 (Johns Hopkins Ion Channel Center, 2013)
Activity calls are given as the source filed them. No rule for the calls is given here.

Biological target: Potassium voltage-gated channel subfamily KQT member 2 (Rattus norvegicus) (UniProt O88943)
Assay: block of rat KCNQ2 potassium current – cell-based, automated electrophysiology, SAR follow-up (AID 652152)
Details: KCNQ2-expressing cells, automated patch-clamp current; for inhibition: at 30 µM (top of the series)

Chain of Potassium voltage-gated channel subfamily KQT member 2 (Rattus norvegicus) (O88943 whole entry, looked up): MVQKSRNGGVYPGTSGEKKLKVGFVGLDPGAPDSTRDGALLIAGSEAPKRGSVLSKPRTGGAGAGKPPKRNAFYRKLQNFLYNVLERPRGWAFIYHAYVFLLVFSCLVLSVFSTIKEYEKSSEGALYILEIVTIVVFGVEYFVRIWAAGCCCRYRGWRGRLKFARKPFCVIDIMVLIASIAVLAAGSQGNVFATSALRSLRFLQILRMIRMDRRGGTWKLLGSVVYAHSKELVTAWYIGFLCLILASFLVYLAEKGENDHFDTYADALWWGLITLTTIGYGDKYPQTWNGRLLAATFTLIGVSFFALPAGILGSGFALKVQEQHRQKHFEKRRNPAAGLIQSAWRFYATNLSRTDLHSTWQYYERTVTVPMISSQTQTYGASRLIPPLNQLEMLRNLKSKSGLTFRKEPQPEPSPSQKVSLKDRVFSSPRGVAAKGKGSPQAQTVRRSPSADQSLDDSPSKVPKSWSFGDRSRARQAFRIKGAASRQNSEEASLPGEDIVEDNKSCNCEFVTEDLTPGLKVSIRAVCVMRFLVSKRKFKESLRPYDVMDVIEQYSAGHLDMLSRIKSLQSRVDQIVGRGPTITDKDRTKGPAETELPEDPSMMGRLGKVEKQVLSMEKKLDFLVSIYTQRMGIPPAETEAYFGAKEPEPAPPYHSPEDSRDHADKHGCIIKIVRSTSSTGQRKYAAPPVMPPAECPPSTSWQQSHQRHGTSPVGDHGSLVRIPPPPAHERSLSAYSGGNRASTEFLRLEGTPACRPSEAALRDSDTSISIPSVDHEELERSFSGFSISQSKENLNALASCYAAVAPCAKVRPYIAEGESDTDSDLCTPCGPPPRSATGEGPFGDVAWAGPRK

Compound	inhibition	IC50
CC[C@H](C(=O)Nc1ccc(N2CC(c3ccc(Cl)cc3)C2)cc1)c1ccccc1	inactive	–
CC[C@H](C(=O)Nc1ccccc1N1CCN(c2ccncc2C)CC1)c1ccccc1	–	21200 nM
CC[C@H](C(=O)Nc1ccccc1N1CC[C@H](F)C1)c1ccccc1	–	210 nM
CC[C@H](C(=O)Nc1ccc(N2CCN(c3cc(C(F)(F)F)ccn3)CC2)cc1)c1ccccc1	inactive	–
CC[C@H](C(=O)Nc1ccccc1N1CC(c2ccc(Cl)cc2)C1)c1ccccc1	–	890 nM

Next, values leading:

inhibition	IC50	Compound
–	750 nM	CC[C@H](C(=O)Nc1ccc(N2CCC(F)(F)CC2)cc1)c1ccccc1
–	2800 nM	CC[C@H](C(=O)Nc1ccccc1N1CCC(F)(F)CC1)c1ccccc1
inactive	–	CC[C@H](C(=O)Nc1ccc(N2CCN(c3ccncc3C)CC2)cc1)c1ccccc1
–	120 nM	CC[C@H](C(=O)Nc1ccc(N2CC[C@H](F)C2)cc1)c1ccccc1
inactive	–	CC[C@H](C(=O)Nc1ccc(N2CCCC(F)C2)cc1)c1ccccc1 (stereo not given in full)
